Consider two molecules from PMC10840383, “Clinical features, functional consequences, and rescue pharmacology of missense GRID1 and GRID2 human variants” (Human Molecular Genetics, 2023).

Molecules are shown by their SMILES. Where a chain is given by its changes, count along the chain named.

Holding throughout (assay type): cell-based
One assay has as its target T1, GluD2-WT (Rattus norvegicus, UniProt Q63226).
T1 construct: expressed in transfected cells; host or cells: Xenopus laevis oocytes injected with cRNA
T1 sequence (Q63226 24-1007): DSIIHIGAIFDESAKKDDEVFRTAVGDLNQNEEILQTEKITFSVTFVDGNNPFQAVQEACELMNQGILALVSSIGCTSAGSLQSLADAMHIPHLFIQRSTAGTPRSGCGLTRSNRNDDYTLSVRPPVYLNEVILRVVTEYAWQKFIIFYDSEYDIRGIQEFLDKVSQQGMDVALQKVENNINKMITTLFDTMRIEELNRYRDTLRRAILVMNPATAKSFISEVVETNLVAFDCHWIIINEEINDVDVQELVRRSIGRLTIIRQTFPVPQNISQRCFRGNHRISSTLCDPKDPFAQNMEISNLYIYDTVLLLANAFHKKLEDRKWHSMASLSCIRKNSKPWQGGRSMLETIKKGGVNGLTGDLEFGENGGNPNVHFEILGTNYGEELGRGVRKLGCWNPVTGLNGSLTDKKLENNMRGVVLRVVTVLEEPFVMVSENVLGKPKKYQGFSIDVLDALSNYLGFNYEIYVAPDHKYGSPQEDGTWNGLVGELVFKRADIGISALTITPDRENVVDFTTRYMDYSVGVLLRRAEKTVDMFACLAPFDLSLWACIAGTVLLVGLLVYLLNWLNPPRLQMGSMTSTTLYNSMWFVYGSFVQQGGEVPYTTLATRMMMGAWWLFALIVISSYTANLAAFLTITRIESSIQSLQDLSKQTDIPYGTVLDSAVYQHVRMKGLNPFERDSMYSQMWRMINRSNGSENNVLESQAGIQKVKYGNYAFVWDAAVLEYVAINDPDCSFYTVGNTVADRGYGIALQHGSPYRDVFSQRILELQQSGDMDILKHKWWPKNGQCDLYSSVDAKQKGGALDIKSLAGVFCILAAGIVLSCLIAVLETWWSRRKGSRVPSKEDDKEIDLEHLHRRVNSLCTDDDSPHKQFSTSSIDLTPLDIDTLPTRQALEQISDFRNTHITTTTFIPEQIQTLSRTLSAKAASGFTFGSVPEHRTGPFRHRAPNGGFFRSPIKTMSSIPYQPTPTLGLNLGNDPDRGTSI
Description: TEVC of constitutive current, Xenopus oocytes expressing GluD2-WT.

Another assay addresses T2, GluD1-WT (Homo sapiens, UniProt Q9ULK0).
T2 construct: expressed in transfected cells; host or cells: Xenopus laevis oocytes injected with cRNA
T2 sequence (Q9ULK0 21-1009): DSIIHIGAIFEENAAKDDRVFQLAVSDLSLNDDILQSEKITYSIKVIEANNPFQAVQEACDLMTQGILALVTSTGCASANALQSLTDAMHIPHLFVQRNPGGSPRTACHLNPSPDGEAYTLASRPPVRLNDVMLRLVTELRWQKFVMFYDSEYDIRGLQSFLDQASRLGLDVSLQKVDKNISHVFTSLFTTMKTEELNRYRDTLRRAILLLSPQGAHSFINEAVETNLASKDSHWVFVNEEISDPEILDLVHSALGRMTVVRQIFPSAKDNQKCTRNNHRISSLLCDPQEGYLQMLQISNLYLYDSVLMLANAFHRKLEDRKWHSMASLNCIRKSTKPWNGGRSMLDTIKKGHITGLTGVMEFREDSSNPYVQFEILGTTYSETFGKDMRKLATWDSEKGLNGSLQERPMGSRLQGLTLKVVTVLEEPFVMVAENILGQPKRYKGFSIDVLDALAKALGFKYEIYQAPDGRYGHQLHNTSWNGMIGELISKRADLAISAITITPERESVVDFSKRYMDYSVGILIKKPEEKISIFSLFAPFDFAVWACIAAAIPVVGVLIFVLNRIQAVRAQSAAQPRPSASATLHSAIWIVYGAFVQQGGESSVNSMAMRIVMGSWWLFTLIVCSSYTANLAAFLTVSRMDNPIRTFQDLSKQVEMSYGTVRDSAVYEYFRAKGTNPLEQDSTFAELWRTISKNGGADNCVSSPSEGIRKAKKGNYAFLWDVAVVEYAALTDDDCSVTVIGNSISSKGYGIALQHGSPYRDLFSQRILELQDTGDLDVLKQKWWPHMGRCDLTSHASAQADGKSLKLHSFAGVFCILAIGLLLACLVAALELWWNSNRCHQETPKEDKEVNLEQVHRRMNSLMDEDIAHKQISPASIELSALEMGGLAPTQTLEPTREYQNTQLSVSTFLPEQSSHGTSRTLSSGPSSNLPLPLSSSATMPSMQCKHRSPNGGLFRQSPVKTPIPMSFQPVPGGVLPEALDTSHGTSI
Description: TEVC of constitutive current, Xenopus oocytes expressing GluD1-WT. As to conditions: positive = increase, negative = decrease of activity.

The next assay has as its target T3, GluD2-R710W (Rattus norvegicus, UniProt Q63226, R710W).
T3 construct: expressed in transfected cells; host or cells: Xenopus laevis oocytes injected with cRNA
T3 sequence (Q63226 24-1007 R710W): T1 sequence (Q63226 24-1007) with R687W
Put plainly: TEVC of constitutive current, Xenopus oocytes expressing GluD2-R710W. As to conditions: positive = increase, negative = decrease of activity.

Turning to `N[C@H](CO)C(=O)O` [D-serine], the “Effect on difference current, in words” value on GluD2-WT (10 mM D-serine) is “minimal activity”. For the same molecule, the “D-Serine effect (Baseline −10 mM D-Serine)” value on GluD2-WT (10 mM D-serine, positive = increase, negative = decrease of activity) is −3.6 ± 1.0 (14) nA; at GluD1-WT (10 mM D-serine) it was 2.3 ± 2.9 (13) nA; on GluD2-R710W (10 mM D-serine), −2.3 ± 0.60 (11) nA.
Regarding `N=C(N)c1ccc(OCCCCCOc2ccc(C(=N)N)cc2)cc1` [Pentamidine, pentamidine], the “Pentamidine effect (Baseline −100 μM Pentamidine)” value at GluD2-WT (100 μM pentamidine, positive = increase, negative = decrease of activity) is reported as 3.6 ± 4.8 (14) nA; on GluD1-WT (100 μM pentamidine) it was 37 ± 11 (14) nA; on GluD2-R710W (100 μM pentamidine) it was 0.82 ± 1.9 (11) nA.
